Data published in paper PMC13223490, “New Indazole Derivatives as Potential Scaffolds for the Development of Anticancer, Antiviral, and Anti-tuberculosis Chemotherapeutic Compounds” (Current Medicinal Chemistry, 2025).
In brackets after ≈: the same amount, converted by molar mass. Several values for one entry are separate records, joined by “and”; a condition that tells them apart may be missing. Equal values may be shown once. Read-outs that look alike come from different tables or passages of the source.

Experiments:
[1] = test system: influenza virus A/California/7/2009 (H1N1)pdm09; test: microbe, parasite or virus in culture; format: cell-based, human influenza virus A; details: for SI (selectivity index): ratio of CD50 (CC50) to IC50, MDCK
MDCK cells = test: Cytotoxic effect in MDCK cell culture (MTS); format: cell-based; details: MDCK; concentration reducing the cell number by 50%
Method: (§1) Multiple dilutions of solutions of all compounds were prepared in 24-well plates by titration into 8 wells, starting from a dilution of 1:10 to 1:1280. The resulting serial dilutions were transferred to the wells of the test plates with cells. Each point was tested in 4 parallel wells. The working medium was added to the wells of the cell control. […] Then, the culture medium was removed from the plates, and 100 μL of the medium and 20 μL of the MTS solution were added to the cell culture monolayer in each well. After incubation for 3 hours at 37°C, the results were recorded on a BIO-RAD automatic reader at a wavelength of 490 nm. Reference filter - 630 nm.
(§2) To obtain statistically reliable results, the experiments were performed 2-3 times. The values of CC50 and IC50 were calculated using generally accepted methods for biological research, as implemented in the Microsoft Excel 5.0 and GraphPad Prism 6.01 software packages. The working model for CC50 analysis was a 4-parameter logistic curve equation (menu items “Nonlinear regression” - “Sigmoidal dose-response (variable slope)”). For IC50 analysis, a 4-parameter logistic curve equation was adopted (menu items “Nonlinear regression” - “log (inhibitor) vs. response (variable slope)”). Based on the obtained data, the selectivity index (SI) was calculated using the equation: SI = CC50/ IC50.

SARS-CoV-2 = test: microbe, parasite or virus in culture; format: cell-based; details: for IC50: Vero E6
HL60 leukemia cells = test: Cytotoxicity on tumor cell cultures (resazurin, 48 h); format: cell-based; details: HL60, 48 h
Method: (§3) The total well volume was 150 μl.

K562 leukemia cells = test: as above; format: cell-based; details: K562, 48 h
Method: as §3

[2] = test system: SH-SY5Y neuroblastoma cells; test: as above; format: cell-based
Method: as §3

[3] = test system: SH-SY5Y, K-562, HL-60, GBM5522 cells; test: Cytotoxicity screening, summary over the cancer cell panel; format: cell-based
Method: as §3
Cytotoxicity screening of the synthesized indazole derivatives was performed on the cell line of neuroblastoma SH-SY5Y, lymphoblastic cells K-562, promyeloblastic cells HL-60, low-passage variant of highly differentiated multiform glioblastoma GBM5522 (Table 2).

M. tuberculosis H37Rv = test: Bacteriostatic activity, proportion method, BACTEC MGIT 960, Middlebrook 7H9; format: cell-based, Mycobacterium tuberculosis; details: for MIC50: 50% inhibition of mycobacterial growth; for effect on growth of M. tuberculosis H37Rv culture, in words: up to the maximum tested concentration
[4] = test system: GBM5522 low-passage primary glioblastoma multiforme cells; test: Cytotoxicity on tumor cell cultures (resazurin, 48 h)
Method: The low-passage primary glioblastoma multiforme cell culture GBM5522 was previously described [37]. Cells were cultured in DMEM (Servicebio) containing 10% fetal bovine serum (FBS) at 37°C in an atmosphere of 5% CO2. The cells were plated in 96-well plates at a density of 1x10^4 cells/well. The test substances were then added in concentrations ranging from 0.8 to 100 μM. DMSO at a concentration of 1% was used as a control, corresponding to the percentage of DMSO when the highest concentration of the drug was added. The total well volume was 150 μl. The cells were incubated for 48 hours at 37°C in a 5% CO2 atmosphere. Resazurin was added in a concentration of 10 μl of a 0.5 mg/mL solution in phosphate-buffered saline. The incubation was carried out under the same conditions for 4 hours, and then the fluorescence level was measured at an excitation wavelength of 560 nm and an emission wavelength of 590 nm using a CLARIOstar multimodal microplate reader (BMG Labtech, Germany). The data obtained for each concentration were normalized to the control, and the IC50 was calculated using the nonlinear regression method. The minimum number of repetitions for each concentration was three. The GraphPad Prism software v.9.5.1 (GraphPad Software, San Diego, USA) was used to calculate the IC50 and plot the percentage of living cells versus the concentration of the drug.

mycobacteria = test system: mycobacteria; parameters: method as in PMID 27704782; details: growth of mycobacteria; cited from earlier work
M. tuberculosis = test system: M. tuberculosis; parameters: method as in PMID 37111241; details: cited from earlier work
[5] = Cytotoxic effect in MDCK cell culture (MTS); format: cell-based; details: dog
Method: as §1, §2

in vivo = format: in vivo, mice; details: both sexes, white outbred, mouse, in vivo, po; mice, single intragastric administration, day 14
Excerpt: (§4) The toxicity of the compound was studied according to published procedure in compliance with the guidelines.
(§5) In this regard, one representative of the group, lead compound 8, was studied for acute toxicity in […] mice. White outbred mice of both sexes, weighing 25-30 g and aged 12-13 weeks, were used as biomodels. The animals were obtained from the nursery of the Federal State Unitary Enterprise «Research Institute for Hygiene, Toxicology and Occupational Pathology» of the Federal Medical and Biological Agency of Russia. The total number of animals was 20 heads. The experimental and control groups consisted of 4 animals with an equal number of males and females.
(§6) The toxic effect of the specified substance was studied using the described procedure. The substance was administered intragastrically using an atraumatic metal probe at a rate of 0.05 mL per 10 g of body weight in a dose range from 20 mg/kg to 80 mg/kg. Control animals received the solvent (99% DMSO) in the same volume in a similar way.
(§7) After the substance was administered, the animals were continuously observed for 4 hours, then periodically for 14 days, recording clinical manifestations of intoxication and the fact of death, after which lethal doses were calculated.
(§8) Dead animals were autopsied as soon as possible after death, macroscopic manifestations of the effect of the test compound were noted, and internal organs were collected for subsequent histological examination as described earlier.
(§9) Lethal doses were calculated using the probit analysis method, as described by D.J. Finney, in Microsoft Excel 2013 on the 14th day of the experiment.

white outbred mice = test: in vivo; format: in vivo
Excerpt: as §4, §5, §6, §7, §8, §9

[6] = 75% inhibition of mycobacterial growth
[7] = Severe acute respiratory syndrome coronavirus 2, Vero C1008
[8] = Mycobacterium tuberculosis, H37RV, 75% inhibition of mycobacterial growth
[9] = Mycobacterium tuberculosis, H37RV, read-out: MIC 50
[10] = mice, single intragastric administration, day 14

| Molecule | Δlgmax [1] | Δlgmax (SARS-CoV-2) | effect on growth of M. tuberculosis H37Rv culture, in words (M. tuberculosis H37Rv) | IC50 ([1]; H1N1, MDCK) [µM] | SI (selectivity index) [1] | CC50 at 66 h [5] [µM] | IC50 (SARS-CoV-2; [7]) [µM] | IC50 (HL60 leukemia cells; Homo sapiens, HL-60) [µM] | IC50 (K562 leukemia cells; Homo sapiens) [µM] | IC50 ([2]; Homo sapiens) [µM] | MIC (M. tuberculosis H37Rv; [8]) | MIC50 (M. tuberculosis H37Rv; [9]) | IC50 ([4]; 48 h) [µM] | cytotoxicity in words [3] | further results |
| --- | --- | --- | --- | --- | --- | --- | --- | --- | --- | --- | --- | --- | --- | --- | --- |
| 6-(cyclopenten-1-en-1-yl)-1H-indazole [Compound 12] | 0.25 | 0.5 | best antibacterial activity | – | – | – | – | – | – | – | – | – | – | – | IC50 ([1]; read-out: IC50): > 2 µM; CC50 (MDCK cells): 4 µM; IC50 (SARS-CoV-2): > 3 µM; IC50 (HL60 leukemia cells): > 100 µM; IC50 (K562 leukemia cells): 22.3 ± 4.3 µM; IC50 [2]: > 100 µM; cytotoxicity in words ([3]; cancer cell lines panel): inactive; MIC50 (M. tuberculosis H37Rv): 40 µg/mL; MIC50 (M. tuberculosis H37Rv; read-out: MIC 50): 217 µM; MIC (M. tuberculosis H37Rv; [6]): 217 µM; MIC 75 (M. tuberculosis H37Rv; [6]): 40 µg/mL; IC50 ([4]; GBM5522, 48 h): > 100 µM |
| Cc1n[nH]c(C)c1S(=O)(=O)Nc1ccc2cn[nH]c2c1 [Compound 4, N-(1H-indazol-6-yl)-3,5-dimethyl-1H-pyrazole-4-sulfonamide] | – | – | – | – | – | – | – | – | – | – | – | – | – | – | MIC (mycobacteria): 2 µM (≈ 0.583 µg/mL) |
| O=C(N/N=C/c1ccc2c[nH]nc2c1)c1ccncc1 [Compound 5] | – | – | – | – | – | – | – | – | – | – | – | – | – | – | MIC (M. tuberculosis): 0.11 µM (≈ 0.0292 µg/mL) |
| c1cc2[nH]ncc2cc1-c1cn[nH]c1 [Compound 7, 5-(1H-pyrazol-4-yl)-1H-indazole] | 0 | 0.25 | – | > 20 | <5 | 100 | > 50 | 23.7 ± 5 | 24.4 ± 3.1 | 15.5 ± 5.3 | 60 µg/mL and 326 µM | 40 µg/mL and 217 µM | 36.8 ± 2 | – | – |
| c1cc2cn[nH]c2cc1-c1cn[nH]c1 [Compound 8, 6-(1H-pyrazol-4-yl)-1H-indazole] | 2.0 | 0.75 | – | 6 | 55 | 330 | > 6 | 9.9 ± 0.8 | 6.7 ± 0.8 | 4.2 ± 0.9 | 60 µg/mL and 326 µM | 40 µg/mL and 217 µM | 13.8 ± 1.1 | significant cytotoxicity | maximum reduction of the infectious titer ([1]; MDCK cell culture): 2.0 logTCID50; IC50 ([3]; SH-SY5Y, K-562, HL-60, GBM5522, read-out: IC50 range over cancer cell lines): 4 to 14 µM; LD50 (in vivo): 40 mg/kg; Number of Animals in the Group/Number of Dead (white outbred mice; 20 mg/kg intragastric): 4/0; Number of Animals in the Group/Number of Dead (white outbred mice; 40 mg/kg intragastric): 4/2; Number of Animals in the Group/Number of Dead (white outbred mice; 50 mg/kg intragastric): 4/3; necropsy findings (white outbred mice; 80 mg/kg and 50 mg/kg, dead animals): uncoagulated blood was found in the heart, pulmonary hyperemia was present, and blood was observed in the chest; Number of Animals in the Group/Number of Dead (white outbred mice; 80 mg/kg intragastric): 4/4; pathomorphological examination (white outbred mice; 80 mg/kg, male mouse): focal hemorrhages in the gastric mucosa and pronounced swelling and edema of the submucosal layer; clinical picture of intoxication (white outbred mice; lethal doses, first day after administration): convulsions, dysfunction of the hind limbs, increasing hypodynamia; LD10 (white outbred mice; [10]): 26,2 mg/kg; LD16 (white outbred mice; [10]): 28,8 mg/kg; LD84 (white outbred mice; [10]): 55,6 mg/kg |
| c1ncc(-c2ccc3[nH]ncc3c2)cn1 [Compound 9, 5-(pyrimidin-5-yl)-1H-indazole] | 1.0 | 0 | best antibacterial activity | > 100 | <10 | 1050 | > 50 | > 100 | > 100 | > 100 | 40 µg/mL and 204 µM | 40 µg/mL and 204 µM | > 100 | inactive | – |
